Results on two molecules are retold here after ChEMBL document CHEMBL3585307, “Cyclic Steroid Glycosides from the Starfish Echinaster luzonicus: Structures and Immunomodulatory Activities” (J Nat Prod, 2015).

Series [1] deals with RAW264.7. Kind of series: Cytotoxicity against mouse RAW264.7 cells assessed as cell viability at 0.001 to 50 uM after 48 hrs by MTT assay. Type of series: cell-based. Particulars: raw264.7, 48 h.
Series [2] deals with RAW264.7. Kind of series: Stimulation of lysosomal activity in mouse RAW264.7 cells after 24 hrs by acridine orange based/immunomodulatory activity assay. Type of series: functional, cell-based.
Series [3] has as its system RAW264.7. The series is described as follows: Stimulation of lysosomal activity in mouse RAW264.7 cells at 10 uM after 24 hrs by acridine orange based/immunomodulatory activity assay. Type of series: functional, cell-based.
For series [4], the system named is RAW264.7. Kind of series: Stimulation of lysosomal activity in mouse RAW264.7 cells at 0.001 to 1 uM after 24 hrs by acridine orange based/immunomodulatory activity assay. Type of series: functional, cell-based.
Series [5] concerns RAW264.7. Kind of series: Stimulation of lysosomal activity in mouse RAW264.7 cells at 0.1 uM after 24 hrs by acridine orange based/immunomodulatory activity assay. Type of series: functional.
Series [6] concerns RAW264.7. The series is described as follows: Induction of reactive oxygen species generation in mouse RAW264.7 cells at 0.01 to 10 uM after 24 hrs by DCF-DA dye-based/immunomodulatory activity assay. Type of series: functional, cell-based.
Series [7] concerns RAW264.7. Kind of series: Induction of reactive oxygen species generation in mouse RAW264.7 cells at 0.01 uM after 24 hrs by DCF-DA dye-based/immunomodulatory activity assay relative to control. Type of series: functional.
For series [8], the system named is RAW264.7. The series is described as follows: Induction of NO production in mouse RAW264.7 cells after 24 hrs by FA-OMe fluorescent probe based/immunomodulatory activity assay. Type of series: functional, cell-based.
The test system of series [9] is RAW264.7. The series is described as follows: Induction of NO production in mouse RAW264.7 cells at 0.01 uM after 24 hrs by FA-OMe fluorescent probe based/immunomodulatory activity assay. Type of series: functional.
For series [10], the system named is RAW264.7. Kind of series: Induction of NO production in mouse RAW264.7 cells at 0.1 uM after 24 hrs by FA-OMe fluorescent probe based/immunomodulatory activity assay. Type of series: functional.
In series [11] the test system is RAW264.7. The series is described as follows: Stimulation of lysosomal activity in mouse RAW264.7 cells at 0.1 uM after 24 hrs by acridine orange based/immunomodulatory activity assay relative to 1 ug/ml LPS stimulation. Type of series: functional, cell-based.

Activity calls are given as the source filed them. No cut-off for these calls is given here.

In the case of `CC(C)CC(=O)C[C@@H](C)[C@H]1CC[C@H]2C3=C[C@H]4OC[C@H]5O[C@@H](O[C@H]6[C@@H](OC[C@H](O)[C@@H]6O)O[C@H]6[C@H](O[C@H]7CC[C@@](C)([C@@H]4C7)[C@H]3CC[C@]12C)O[C@H](C(=O)O)[C@@H](O)[C@@H]6O)[C@H](O)[C@@H](O)[C@H]5O`, the Activity entry was “Non-toxic” in the series on RAW264.7 [1]; “Dose-dependent effect” in the series with RAW264.7 [2]; 50% in the series with RAW264.7 [5]; “Dose-dependent effect” in the series on RAW264.7 [8]; 15% in the series on RAW264.7 [9]; 15% in the series on RAW264.7 [10]. In addition, the outcome in the series on RAW264.7 [3] was inactive. For the same molecule, the result in the series with RAW264.7 [4], in the series with RAW264.7 [6] and in the series on RAW264.7 [11] was Active. Further, the “fold change (FC)” value in the series on RAW264.7 [7] amounted to 2.

Take `CC(C)CC(=O)C[C@@H](C)[C@H]1CC[C@H]2C3=C[C@H]4OC[C@H]5O[C@@H](O[C@H]6[C@@H](OC[C@H](O)[C@@H]6O)O[C@H]6[C@H](O[C@H]7CC[C@@](C)([C@@H]4C7)[C@H]3CC[C@]12C)O[C@H](C(=O)O)[C@@H](O)[C@@H]6O)[C@H](O)[C@@H](O)[C@@H]5O`: in the series with RAW264.7 [1], the Activity entry is “Non-toxic”. Besides, the outcome in the series on RAW264.7 [6] and in the series on RAW264.7 [8] was inactive.
